From publication PMC12169455, “Discovery of Indole-Based PDE5 Inhibitors: Synthesis and Pharmacological Evaluation” (ACS Medicinal Chemistry Letters, 2025)
Like-named read-outs stand apart in the source and are kept apart here.

How the values were obtained:
Recombinant human PDE5 = Recombinant human PDE5 (Homo sapiens, UniProt O76074); assay: PDE5 enzymatic assay coupled with LC/MS analysis for cGMP determination; type: biochemical
[1] = tested on: MCF-7 mammary epithelial adenocarcinoma cells; assay: MTT cytotoxicity assay; type: cell-based; details: MCF-7, MTT
Procedure: The cytotoxicity effect of compound 14a was investigated to validate its suitability as a lead compound for further drug development. The cancer cell line MCF-7 was used in an MTT assay assessing cell metabolic activity (see Supporting Information for materials and methods).
5 Cytotoxicity assay of compound 14a. The compound (0.1–100 μM) was dissolved in 20% DMSO in saline; ns = nonsignificant. […]
µM concentrations. […] The cells
MultiScreen® filter plate (cat. no. MAIPNTR10, Millipore). Sample solutions (300 µL, 50 µM, […]
at room temperature for 18 hours. Samples from the acceptor wells were collected and analyzed by HPLC (Nexera-i LC-2040C Plus, Shimadzu). Equilibrium solutions of compounds 5e, 14a, […]
HPLC. The assay was performed in triplicate. […]
used for the HPLC analysis. […]
apparent permeability (Papp) using the following equation:
P = C × ― ln 1 ― AUCa cm/s […]
this protocol, the donor volume (Vd) is 0.3 cm3, acceptor volume (Va) is 0.15 cm3, membrane

[2] = PAMPA using porcine brain lipids (BBB permeability); details: pig
[3] = PDE5 IC50 ± SEM, compound concentration range 0.1 nM – 100 μM, substrate concentration 150 nM
[4] = read-out: % PDE5 Inhibition ± SEM
[5] = Papp (RSD), tested at 50 μM, 18 hours, n.d. = not detected
[6] = Papp relative to the BBB-permeable cutoff, higher than cutoff = BBB-permeable
[7] = compound concentration range 0.1 nM – 100 μM, substrate concentration 150 nM, read-out: PDE5 IC50 ± SEM
[8] = compound tested at 10 μM, average of at least three independent experiments, read-out: % PDE5 Inhibition ± SEM

Row | Compound | IC50 (Recombinant human PDE5; [7]) | inhibition at 10 µM (Recombinant human PDE5; [8]) | other results
1 | COc1ccc(NC(=O)c2cn(CCN(C)C)c3ccc(C#N)cc23)cc1Cl [Compound 14b] |  |  | IC50 (Recombinant human PDE5; [3]): 10600 ± 1990 nM; inhibition at 10 µM (Recombinant human PDE5; [4]): 47.5 ± 2.33%
2 | COc1ccc(CNC(=O)c2cn(CCN(C)C)c3ccc(C#N)cc23)cc1Cl [Compound 14a] |  |  | biologically safe up to (cytotoxicity assay) [1]: up to 100 μM; concentration showing a cytotoxic effect ([1]; after 72 h incubation, safe at all other concentrations tested (0.1–100 μM)): 100 µM; IC50 (Recombinant human PDE5; PDE5 IC50, value quoted in abstract and conclusion): 16.1 nM; IC50 (Recombinant human PDE5; [3]): 16.1 ± 7 nM; increase in biological activity (PDE5) on replacing amine with amide (Recombinant human PDE5; compared with amine analogues): 2 log unit; inhibition at 0.5 µM (Recombinant human PDE5; [4]): 101 ± 4.99%; Papp at 18 h, 50 µM [2, 5]: 2.83 ×10⁻⁶ cm/s; Papp at 18 h, 50 µM [2, 6]: > 2 ×10⁻⁶ cm/s
3 | COc1ccc(CN(C)C(=O)c2cn(CCN(C)C)c3ccc(C#N)cc23)cc1Cl.Cl [Compound 14d] |  |  | IC50 (Recombinant human PDE5; [3]): 4900 ± 680 nM; reduction of the enzymatic activity (PDE5) compared to 14a (Recombinant human PDE5; amide hydrogen replaced by methyl): 2 log unit; inhibition at 10 µM (Recombinant human PDE5; [4]): 52 ± 6.68%
4 | COCCn1cc(CNc2ccc(OC)c(Cl)c2)c2cc(C#N)ccc21 [Compound 5f] | 10400 ± 150 nM | 74.5 ± 1.95% | 
5 | Cn1cc(CNCCN2CCOCC2)c2cc(C#N)ccc21 [Compound 5j] |  | 10.5 ± 1.69% | 
6 | COc1ccc(NCc2cn(CC(C)C)c3ccc(C#N)cc23)cc1Cl [Compound 5d] | 1720 ± 720 nM | 99.2 ± 2.72% | 
7 | COc1ccc(Nc2cn(S(=O)(=O)c3ccc(C)cc3)c3ccc(C#N)cc23)cc1Cl [Compound 10] |  | 73.4 ± 7.5% | 
8 | CCCc1nn(C)c2c(=O)[nH]c(-c3cc(S(=O)(=O)N4CCN(C)CC4)ccc3OCC)nc12 [Sildenafil, sildenafil, reference compound] |  |  | inhibition at 0.01 µM (Recombinant human PDE5; [4]): 58.2 ± 2.33%
9 | COc1ccc(CNC(=O)c2cn(CCN(C)C)c3ccccc23)cc1Cl [Compound 14c] |  |  | IC50 (Recombinant human PDE5; [3]): 3650 ± 970 nM; PDE5 inhibition effect compared to compound 5e (Recombinant human PDE5; at 10 μM): about double; inhibition at 10 µM (Recombinant human PDE5; [4]): 66.1 ± 2.34%
10 | COc1ccc(NCc2cn(Cc3ccncc3)c3ccc(C#N)cc23)cc1Cl [Compound 5g] |  | 54.5 ± 4.21% | 
11 | COc1ccc(NCc2cn(CC3CC3)c3ccc(C#N)cc23)cc1Cl [Compound 5c] | 1370 ± 300 nM | 86.3 ± 1.97% | 

Second part, led by results:

Row | IC50 (Recombinant human PDE5; [7]) | inhibition at 10 µM (Recombinant human PDE5; [8]) | Compound | other results
12 | 1250 ± 150 nM | 72.2 ± 1.25% | COc1ccc(CNCc2cn(C)c3ccc(C#N)cc23)cc1Cl [Compound 5h] | 
13 |  | 26.2 ± 3.85% | COc1ccc(NCc2cn(CCN(C)C)c3ccc(C#N)cc23)cc1Cl [Compound 5e] | Papp at 18 h, 50 µM [2, 5]: 5.62 ×10⁻⁶ cm/s; Papp at 18 h, 50 µM [2, 6]: > 2 ×10⁻⁶ cm/s
14 | 2460 ± 130 nM | 94.8 ± 2.58% | CCCn1cc(CNc2ccc(OC)c(Cl)c2)c2cc(C#N)ccc21 [Compound 5b] | 
15 | 1770 ± 390 nM | 73.4 ± 4.13% | Cn1cc(CNCc2ccc(Cl)c(C(F)(F)F)c2)c2cc(C#N)ccc21 [Compound 5k] | 
16 |  | 23.6 ± 2.24% | Cn1cc(CNCc2ccc3c(c2)OCO3)c2cc(C#N)ccc21 [Compound 5i] | 
17 | 2650 ± 480 nM | 77 ± 4.87% | COc1ccc(NCc2cn(C)c3ccc(C#N)cc23)cc1Cl [Compound 5a] | 
